Measurements as given in PubChem BioAssay AID624404 (Broad Institute, 2012).
Records with an inconclusive call do not appear.

What follows are compounds tested on D54 LucT luciferase reporter counterscreen, luminescence, 24 h (assay: reporter signal increase, D54 LucT cells – cell-based, luminescence, cherry pick, counter-screen for N-linked glycosylation inhibitor project, dose response (AID 624404)).

Q: For `COc1cc(C(=O)N/N=C(\C)c2ccc3c(c2)OCO3)cc(OC)c1OC`, which AC35 is on record?
A: The AC35 was 92.4 nM.

Q: Which AC35 does the source give for `CCOC(=O)c1cnc2c(ccc3ccccc32)c1NCCCN(C)C` here?
A: Its AC35 is 515 nM.

Q: For `O=C1c2ccccc2C(=O)N1Cc1cnc(N2CCN(c3ccccc3)CC2)s1`, which AC35 is on record?
A: The AC35 was 2890 nM.

Q: Which AC35 does the source give for `COc1ccc(CCn2c(=N)c(C(=O)NCC3CCCO3)cc3c(=O)n4cccc(C)c4nc32)cc1OC` (stereo not drawn) here?
A: The AC35 was 154 nM.

Q: For `Cc1ccc2c(c1)[C@H]1[C@H](CO2)[C@H](c2ccccc2)[C@]2(C)C(=O)Nc3ccc(Br)cc3C(=O)N12`, which AC35 is on record?
A: Its AC35 is 1760 nM.

Q: Which AC35 does the source give for `CC(C)(C)OC(=O)[C@H](Cc1ccccc1)NC(=O)c1nc[nH]c1C(=O)N1CCc2ccccc2C1` here?
A: Its AC35 is 2550 nM.

Q: For `Cc1ccc2nc(SCc3nnc(-c4ccccc4[N+](=O)[O-])o3)c(C#N)cc2c1`, which AC35 is on record?
A: The AC35 was 1300 nM.

Q: For `COc1ccccc1-c1csc(C(NC(C)=O)c2ccccc2)n1` (stereo not drawn), which AC35 is on record?
A: Its AC35 is 643 nM.

Q: For `CC(Nc1nc(-c2cccnc2)nc2ccccc12)c1ccccc1` (stereo not drawn), which AC35 is on record?
A: The AC35 was 1050 nM.

Q: `CC#CC#Cc1cccc(=O)o1` was tested. Which AC35 did it give?
A: The AC35 was 407 nM.

Q: Which AC35 does the source give for `O=C(/C=C/c1ccccc1)c1ccccc1` here?
A: Its AC35 is 1200 nM.

Q: Which AC35 does the source give for `CC(=O)NC(=C(Cl)Cl)S(=O)(=O)c1ccccc1` here?
A: Its AC35 is 3670 nM.

Q: Which AC35 does the source give for `C=CCn1c(O)c(C(CC)=NC(C)c2ccccc2)c(=O)[nH]c1=O` (stereo not drawn) here?
A: Its AC35 is 1080 nM.

Q: How did the AC35 turn out when `CCOC(=O)c1c(NC(C)=O)sc2c(OCCN(CC)CC)c(Br)ccc12` was run?
A: Its AC35 is 7.67 nM.

Q: With `O=C(Nc1cccc(NC(=O)c2cccs2)c1)c1ccc([N+](=O)[O-])o1` as the compound, how does the AC35 read?
A: The AC35 was 1050 nM.

Q: `Cc1ccc(Sc2c(CO)c(-c3ccccc3)nn2C)cc1` was tested. Which AC35 did it give?
A: The AC35 was 166 nM.

Q: `CCOC(=O)c1[nH]c2c(c1-c1ccccc1)C(=O)CC(c1ccccc1)C2` (stereo not drawn) was tested. Which AC35 did it give?
A: The AC35 was 2690 nM.

Q: With `CCCCn1c(SCc2c(C)noc2C)nc2cc(S(N)(=O)=O)ccc21` as the compound, how does the AC35 read?
A: The AC35 was 680 nM.

Q: Which AC35 does the source give for `O=C(Nc1cccc2ncccc12)c1ccc([N+](=O)[O-])o1` here?
A: The AC35 was 4570 nM.

Q: Which AC35 does the source give for `COc1ccc2nc3ccccc3nc2c1NC(=O)c1ccccc1Cl` here?
A: Its AC35 is 17900 nM.

Q: With `COc1cc2c(cc1OC)C(c1ccccc1)N(C(=O)c1cccc(S(C)(=O)=O)c1)CC2` (stereo not drawn) as the compound, how does the AC35 read?
A: Its AC35 is 212 nM.

Q: `Cc1ccc2c(c1)NC(=O)[C@@]1(C)[C@@H](c3ccccc3)[C@H]3COc4ccccc4[C@@H]3N1C2=O` was tested. Which AC35 did it give?
A: Its AC35 is 371 nM.

Q: With `O=S(=O)([N-]c1nc2ccccc2nc1-n1cc[n+](Cc2ccccc2)c1)c1ccc(Br)cc1` as the compound, how does the AC35 read?
A: The AC35 was 57 nM.

Q: Which AC35 does the source give for `COc1cccc(/C=N/NC(=O)c2cc3c(OC)c(OC)ccc3[nH]2)c1OC` here?
A: Its AC35 is 4940 nM.

Q: `Cc1c(Cl)cccc1Nc1nc(N)nc(CN2CCc3ccccc3C2)n1` was tested. Which AC35 did it give?
A: The AC35 was 614 nM.

Q: With `CCOc1ncccc1C(=O)Nc1cc2c(cc1Br)OCCO2` as the compound, how does the AC35 read?
A: The AC35 was 169 nM.

Q: For `CC(=O)c1c(C)[nH]c(C(=O)Nc2cccc(S(=O)(=O)N3CCCC3)c2)c1C`, which AC35 is on record?
A: The AC35 was 3950 nM.

Q: For `CN(Cc1ccccc1)c1nc2c(c(=O)n(C)c(=O)n2C)n1CCCc1ccccc1`, which AC35 is on record?
A: The AC35 was 893 nM.

Q: For `Cc1nc(N=C(N)N)nc2c(C)cccc12`, which AC35 is on record?
A: The AC35 was 3820 nM.

Q: With `CC1CN(C(=O)c2ccc(COc3ccc4ccccc4c3)o2)CC(C)O1` (stereo not drawn) as the compound, how does the AC35 read?
A: Its AC35 is 306 nM.

Q: For `Cc1ccc2nc(-c3ccccc3)cc(C(=O)N3CC(C)OC(C)C3)c2c1` (stereo not drawn), which AC35 is on record?
A: Its AC35 is 1920 nM.

Q: With `CC(=O)c1ccc(N2CCN(C(=O)c3cccc(Oc4ccccc4)c3)CC2)cc1` as the compound, how does the AC35 read?
A: The AC35 was 1270 nM.

Q: Which AC35 does the source give for `O=C(O)c1ccc(N/N=C/c2ccc(-c3ccc(Cl)cc3Cl)o2)cc1` here?
A: The AC35 was 1470 nM.

Q: With `CCCCCCn1c(=O)n2n(c1=O)[C@@H]1CN(S(=O)(=O)c3ccc(C)cc3)C[C@]1(O)[C@@H](OC(=O)NCc1ccccc1)C2` as the compound, how does the AC35 read?
A: The AC35 was 717 nM.

Q: Which AC35 does the source give for `Brc1ccc(C2=Nn3c(nnc3-c3n[nH]c4c3CCC4)SC2)cc1` here?
A: Its AC35 is 394 nM.

Q: With `COc1ccc2c(c1)[C@H]1[C@H](CO2)[C@H](c2ccccc2)[C@]2(C)C(=O)Nc3ccc(Br)cc3C(=O)N12` as the compound, how does the AC35 read?
A: Its AC35 is 233 nM.

Q: Which AC35 does the source give for `COc1cc(F)ccc1-c1csc(C(NC(C)=O)c2ccccc2)n1` (stereo not drawn) here?
A: The AC35 was 243 nM.

Q: How did the AC35 turn out when `NC(=O)CC(NC(=O)c1ccc(Br)cc1)c1ccc(N2CCCCCC2)c([N+](=O)[O-])c1` (stereo not drawn) was run?
A: Its AC35 is 1090 nM.

Q: With `O=C(NCCCN1CCOCC1)c1cc(-c2cccs2)on1` as the compound, how does the AC35 read?
A: The AC35 was 3630 nM.

Q: `COc1ccc2c(c1)OC[C@H]1[C@H]2N2C(=O)c3cc(OC)ccc3NC(=O)[C@@]2(C)[C@H]1c1ccccc1` was tested. Which AC35 did it give?
A: The AC35 was 1080 nM.

Q: With `COc1cc(/C=C2\SC(=S)N(CCC(=O)N3CCCCC3)C2=O)cc(OC)c1OC` as the compound, how does the AC35 read?
A: Its AC35 is 3440 nM.

Q: `CCOc1ccc2c(c1)OC(c1ccc(OC)cc1)(C(F)(F)F)NC2=O` (stereo not drawn) was tested. Which AC35 did it give?
A: Its AC35 is 748 nM.

Q: For `O=C(N/N=C/c1ccco1)c1cc(-c2ccncc2)nc2ccccc12`, which AC35 is on record?
A: The AC35 was 7160 nM.

Q: How did the AC35 turn out when `Oc1ccc(C2=NNC(=NCc3ccc4c(c3)OCO4)SC2)c(O)c1` was run?
A: Its AC35 is 3120 nM.

Q: Which AC35 does the source give for `Cc1noc(C)c1COc1cccc(C(=O)OC(C)C(=O)Nc2ccc3c(c2)OCO3)c1` (stereo not drawn) here?
A: Its AC35 is 1600 nM.

Q: With `COc1ccc(CNC(=O)C/C(C)=N/NC(=O)COc2ccc(C)cc2Br)cc1` as the compound, how does the AC35 read?
A: The AC35 was 3090 nM.

Q: For `CCOC(=O)c1c(C)c(C(=O)Nc2ccc(N(C)C)cc2)c(C)n1CC`, which AC35 is on record?
A: Its AC35 is 3560 nM.

Q: For `Cc1cc(C)n(-c2nnc3n2N=C(c2c[nH]c4ccccc24)CS3)n1`, which AC35 is on record?
A: The AC35 was 28.5 nM.

Q: For `COc1ccc(C(=O)/C=C/c2ccc(-c3ccccc3)cc2)cc1CSCC(=O)O`, which AC35 is on record?
A: The AC35 was 875 nM.

Q: For `Cn1nc(-c2ccccc2)c(CSc2ccccc2Cl)c1Cl`, which AC35 is on record?
A: Its AC35 is 1120 nM.

Q: How did the AC35 turn out when `O=C(c1ccc(CS(=O)c2ccccc2Cl)o1)N1CCN(c2ccccn2)CC1` (stereo not drawn) was run?
A: Its AC35 is 5640 nM.

Q: `COc1ccc(Nc2oc(-c3ccc(Cl)cc3)nc2C#N)cc1` was tested. Which AC35 did it give?
A: Its AC35 is 202 nM.

Q: How did the AC35 turn out when `COc1ccc(Cl)cc1S(=O)(=O)Nc1ccc2c(c1)n(C)c(=O)n2C` was run?
A: Its AC35 is 535 nM.
